Results from paper PMC6429200, “Synthesis and Broad Antiviral Activity of Novel 2-aryl-isoindolin-1-ones towards Diverse Enterovirus A71 Clinical Isolates” (Molecules, 2019).

Key:
[1] = system: EV-A71 strain ShenZhen98 (SZ98); assay: CPE inhibition assay for anti-EV-A71 in Vero cells, Shenzhen98 strain; type: cell-based, Enterovirus 71 (EV-A71); conditions: for Shenzhen98 SI: CC50/EC50; for EC50: Enterovirus A, EVA71, Vero cells, 100TCID50, 48 h
Procedure: (§1) An in-vitro antiviral assay was established using the Africa monkey kidney cell line Vero which was infected with different EV-A71 clinical isolates (BrCr, H, Shenzhen98 and Jiangsu52). A total of 24 synthetic compounds were initially screened in such an assay to determine their inhibitory effect on virus replication at 3-fold diluted concentrations serial (400~0.18 μM). The 50% effective concentration (EC50) of each compound was calculated according to its inhibitory rate values with the Reed–Muench method. The 50% cytotoxic concentration (CC50) was defined as the concentration that inhibited 50% cellular growth in comparison with the controls. The selectivity index (SI) was calculated as CC50/EC50. […] Generally, the EV-A71 H strain was less sensitive to most of the active compounds as compared to the other virus strains.
(§2) EV-A71 strain ShenZhen98 (SZ98) was isolated from the throat swab sample of an HFMD case which occurred in 1998 in China. This was kindly provided by Dr. Qi Jin, Institute of Pathogen Biology, Chinese Academy of Medical Science and Peking Union Medical School, Beijing, China. EV-A71 strains BrCr (VR-1775) and H (VR-1432) were purchased from the ATCC. The EV-A71 strain JS52 was a kind gift from Dr. Xiangzhong Ye, Beijing Wantai Biological Pharmacy Enterprise Co., Ltd. EV-A71 were all passaged in Vero cells.
(§3) The anti-EV-A71 activity of compounds was determined by the CPE inhibition method. Briefly, cells (3 × 10^4 cells/well) were plated into 96-well culture plates for incubation for 24 h. The medium was then removed and cells were infected with EV-A71 with 100TCID50 (50% tissue culture infective doses) in serum-free medium for 1 h at 37 °C. Then, the unbound viruses were removed and various concentrations of compounds were supplemented and incubated for another 48 h. The EC50 was determined by the Reed–Muench method. The selectivity index was calculated as the ratio of CC50/EC50 [15].

[2] = system: EV-A71 strain Jiangsu52 (JS52); assay: CPE inhibition assay for anti-EV-A71 in Vero cells, Jiangsu52 strain; type: cell-based, Enterovirus 71 (EV-A71); conditions: for Jiangsu52 SI: CC50/EC50; for EC50: Enterovirus A, EVA71, Vero cells, 100TCID50, 48 h
Procedure: as §1, §2, §3

EV-A71 strain BrCr = assay: CPE inhibition assay for anti-EV-A71 in Vero cells, BrCr strain; type: cell-based, Enterovirus 71 (EV-A71); conditions: for BrCr SI: CC50/EC50; for EC50: Enterovirus A, EVA71, Vero cells, 100TCID50, 48 h
Procedure: as §1, §2, §3

[3] = Cytotoxicity assay (CPE) on Vero cells; type: cell-based; conditions: African green monkey; Vero cells, 3 days of incubation, Reed–Muench; read-out: CC50
Procedure: as §1
African green monkey kidney (Vero) cells were purchased from the American Type Culture Collection (ATCC) and were cultured in minimum essential medium (MEM) supplemented with 10% fetal bovine serum (FBS) (GIBCO) and antibiotics (100 U/mL penicillin and […] streptomycin) at 37 °C in a 5% CO2 incubator.
The cytotoxic effects of compounds on Vero cells were detected by the cytopathic effect (CPE) assay. Briefly, cells (3 × 10^4 cells/well) were seeded into 96-well culture plates and incubated overnight. Then, the medium was removed and different concentrations of compounds were applied in triplicate. After 3 days of incubation, the CC50 was defined as the concentration that inhibited 50% cellular growth in comparison with the untreated controls, as calculated by the Reed–Muench method.

EV-A71 strain H = assay: CPE inhibition assay for anti-EV-A71 in Vero cells, H strain; type: cell-based, Enterovirus 71 (EV-A71); conditions: for H SI: CC50/EC50; for EC50: Enterovirus A, EVA71, Vero cells, 100TCID50, 48 h
Procedure: as §1, §2, §3

Compound	Shenzhen98 SI [1]	EC50 [1] [µM]	Jiangsu52 SI [2]	EC50 [2] [µM]	BrCr SI (EV-A71 strain BrCr)	EC50 (EV-A71 strain BrCr) [µM]	CC50 at 3 days [3] [µM]	H SI (EV-A71 strain H)	EC50 (EV-A71 strain H) [µM]
O=C1c2ccccc2CN1c1ccccc1 [Compound A1, 22-phenylisoindolin-1-one]	47	7.87 ± 0.91	47	7.87 ± 0.91	47	7.87 ± 0.91	370 ± 39.8	13	28.7 ± 4.07
O=C1c2cc(-c3ccccc3)ccc2CN1c1ccc(Cl)cc1 [Compound D1]	/ (/ represents selectivity index (SI) value of less than 10)	–	2	56.5 ± 14.5	/ (/ represents selectivity index (SI) value of less than 10)	–	115	/ (/ represents selectivity index (SI) value of less than 10)	66.7
COc1cc(N2Cc3ccccc3C2=O)cc(OC)c1OC [Compound A8, 2-(3,4,5-trimethoxyphenyl)isoindolin-1-one]	/ (/ represents selectivity index (SI) value of less than 10)	13 ± 2	/ (/ represents selectivity index (SI) value of less than 10)	12.6 ± 2.22	/ (/ represents selectivity index (SI) value of less than 10)	12.6 ± 2.22	76.5 ± 13.1	/ (/ represents selectivity index (SI) value of less than 10)	–
CCCN(CCC)c1ccc2c(c1)CN(c1ccc(OC)cc1)C2=O [Compound B4, 5-(dipropylamino)-2-(4-methoxyphenyl)isoindolin-1-one]	/ (/ represents selectivity index (SI) value of less than 10)	–	/ (/ represents selectivity index (SI) value of less than 10)	–	/ (/ represents selectivity index (SI) value of less than 10)	–	124 ± 12.6	/ (/ represents selectivity index (SI) value of less than 10)	–
O=C(c1ccc(N2Cc3ccccc3C2=O)cc1)N1CCOCC1 [Compound A12, 2-(4-(morpholin-4-carbonyl)phenyl)isoindolin-1-one]	/ (/ represents selectivity index (SI) value of less than 10)	30.3 ± 2.38	/ (/ represents selectivity index (SI) value of less than 10)	30.3 ± 2.38	/ (/ represents selectivity index (SI) value of less than 10)	27 ± 3.38	180 ± 27.3	/ (/ represents selectivity index (SI) value of less than 10)	24.4 ± 9.37
CCC(=O)Nc1ccc2c(c1)CN(c1ccc(C)cc1)C2=O [Compound C3, N-(1-oxo-2-(p-tolyl)isoindolin-5-yl)propionamide]	/ (/ represents selectivity index (SI) value of less than 10)	–	/ (/ represents selectivity index (SI) value of less than 10)	–	/ (/ represents selectivity index (SI) value of less than 10)	–	113 ± 17.2	/ (/ represents selectivity index (SI) value of less than 10)	–
CN1CCN(C(=O)c2ccc(N3Cc4ccccc4C3=O)cc2)CC1 [Compound A11, 2-(4-(4-methylpiperazine-1-carbonyl)phenyl)isoindolin-1-one]	/ (/ represents selectivity index (SI) value of less than 10)	–	/ (/ represents selectivity index (SI) value of less than 10)	–	/ (/ represents selectivity index (SI) value of less than 10)	–	115	/ (/ represents selectivity index (SI) value of less than 10)	–
COc1ccc(N2Cc3ccc(N)cc3C2=O)cc1 [Compound 4, 6-amino-2-(4-methoxyphenyl)isoindolin-1-one]	43	5.27 ± 0.44	40	5.74 ± 0.54	44	5.27 ± 0.44	231	19	11.7 ± 2.1
O=C1c2ccccc2CN1c1ccc(-c2ccccc2)cc1 [Compound A6, 2-([1,1’-biphenyl]-4-yl)isoindolin-1-one]	/ (/ represents selectivity index (SI) value of less than 10)	–	/ (/ represents selectivity index (SI) value of less than 10)	–	/ (/ represents selectivity index (SI) value of less than 10)	–	218 ± 22.3	/ (/ represents selectivity index (SI) value of less than 10)	–
O=C1c2ccccc2CN1c1ccc(Cl)cc1Cl [Compound A5, 2-(2,4-dichlorophenyl)isoindolin-1-one]	49	1.39 ± 0.17	54	1.27 ± 0.01	54	1.27 ± 0.01	68.4 ± 5.72	38	1.81 ± 0.21
COc1ccc(N2Cc3cc(N)ccc3C2=O)cc1 [Compound 5, 5-amino-2-(4-methoxyphenyl)isoindolin-1-one]	17	9.12 ± 0.76	16	9.7 ± 0.76	17	9.12 ± 0.76	159 ± 17.1	–	16.2 ± 1.9
O=C1c2ccccc2CN1c1ccc(F)cc1 [Compound A2, 2-(4-fluorophenyl)isoindolin-1-one]	49	4.43 ± 0.68	58	3.74 ± 0.8	67	3.23 ± 0.25	218 ± 22.3	49	4.43 ± 0.88
O=C(O)c1ccc(N2Cc3ccccc3C2=O)cc1 [Compound A10, 4-(1-oxoisoindolin-2-yl)benzoic acid]	/ (/ represents selectivity index (SI) value of less than 10)	14.6 ± 2.24	/ (/ represents selectivity index (SI) value of less than 10)	14.6 ± 2.24	/ (/ represents selectivity index (SI) value of less than 10)	12.9 ± 2.24	46.2	/ (/ represents selectivity index (SI) value of less than 10)	13.7 ± 5.71
